# Laboratory results reported in US20260166182A1, “CYANINE-BASED FLUOROPHORES” (The General Hospital Corporation, priority 2022, published 2026).
# “Also recorded” adds a separate entry of the source.
# How the values were obtained:
# [1] = system: LLC tumor; test: Tumor histopathology with NIR fluorescence microscopy of resected LLC tumors; format: in vivo, mouse; conditions: histological NIR images
# Protocol: Tumor histopathology evaluation: […] After rinsing with PBS, the fixed sections were counterstained with nuclear fast red, dehydrated by ethanol, transferred into xylene, and finally mounted according to the standard protocol. To determine the tissue distribution of the NIR fluorophore, the dissected tissues were embedded in Tissue-Tek optimum cutting temperature compound (Sakura Finetek, Torrance, CA) without a pre-fixation step. The tissue block was frozen at −80° C. Frozen sections were cut at a thickness of 10 or 50 μm by a cryostat (Leica, Germany). Then, the tissue sections were stained with hematoxylin and eosin (H&E). The BioTek Cytation 5 (Winooski, VT) was used for pathological fluorescence imaging and observation.
# [2] = system: immune cells from bone marrow and tumor tissues; test: Flow cytometry analysis of fluorophore-targeted immune cells from bone marrow and tumor; format: in vivo, mouse; conditions: 48 h post-injection
# Protocol: Flow cytometry analysis: Bone marrow tissue was mechanically dissociated and digested with collagenase D (175 unit/mL, Roche) and DNase I (100 unit/mL, Roche) followed by EDTA (2 mM, Invitrogen). Erythrocytes were removed using RBC Lysis Buffer (Invitrogen). Tumor tissue was mechanically dissociated and digested with collagenase I (175 unit/mL, Thermo-fisher), Collagenase IV (250 unit/mL, Thermo-fisher, 1700019), and DNase I (100 unit/mL) followed by EDTA ([…]). Immune cells were isolated from cell suspensions of the bone marrow or tumor tissue using Ficoll® Paque Plus (GE Healthcare). Isolated cells were stained with anti-mouse F4/80 (BM8, Biolegend, 123131), anti-mouse Ly-6G (1A8, Biolegend, 127639), anti-mouse Ly-6C(HK1.4, Biolegend, 128011), anti-mouse CD11c (N418, Biolegend, 117313), anti-mouse CD103 (2E7, Biolegend, 121425), anti-mouse I-A/I-E (M5/114.15.2 Biolegend, 107611), anti-mouse/human CD11b (M1/70, Biolegend, 101254) and anti-mouse CD45 antibodies (30-F11, Biolegend, 103105) conjugated to fluorophores. Isolated cells were stained with Live/dead®-Aqua (Life Technologies) to distinguish live cells. Stained cells were fixed using 1% paraformaldehyde prior to analysis. Data acquisition was performed on a Fortessa cytometer (BD) followed by analysis on FlowJo software (Tree Star).
# [3] = system: lung carcinoma (LLC cell line); test: NIR-II fluorescence imaging of subcutaneous LLC tumor-bearing C57BL/6 mice; format: in vivo, mouse; conditions: for tumor targeting / tumor signal: intravenous, NIR-II imaging until 48 h post-injection
# Source text: General NIR-II fluorescence imaging: A 640×512-pixel InGaAs camera (Ninox640, Raptor Photonics) and macro zoom lens (0-10×; Navitar Zoom 7000 with SWIR coating) along with 900, 1070, 1100, and 1200 nm long-pass (LP) filters from either Thorlab or Edmund optics were used to collect the NIR-II signal. InGaAs camera played a role as an open-air imaging system along with the support of the FLARE system. An 808 nm fiber-coupled diode laser ([…] at the sample) was used as an excitation source. Data acquisition was done using in-house developed software. […] Mice were imaged with intact skin using InGaAs camera. At least 3 mice were analyzed for each sample. Tumor-bearing mouse models: Animals were housed in an AAALAC-certified facility and were studied under the protocols approved by the MGH IACUC (2016N000136). Mice were maintained under anesthesia with isoflurane and oxygen during the experiment. To establish the various tumor-bearing mouse models including lung carcinoma, pancreatic ductal adenocarcinoma (PDAC), and triple negative breast adenocarcinoma, eight-week-old C57BL/6 mice (Taconic Farms, Germantown, NY) were subcutaneously injected with 2×10^5 LLC, Pan02, and E0771 cells suspended in DMEM/Matrigel (100 μL, 50 v/v %) in the flank region, respectively. Female C57BL/6 mice were used for the breast cancer (E0771) model, otherwise male mice were used. […] Statistical analysis: The fluorescence and background intensities of a region of interest over each tissue were quantified using customized imaging software and ImageJ v1.48 (National Institutes of Health, Bethesda, MD). The signal-to-background ratio (SBR) was calculated as SBR=fluorescence/background, where background was the fluorescence intensity of muscle. Data were reported as mean±s.e.m. with a minimum of three biological replicates. Student's t-test statistical analysis was performed to evaluate the significance of the experimental data. The differences among groups were determined using one-way ANOVA analysis to assess the statistical differences among more than two groups. […] The data was indicated with *p<0.05, ** p<0.01, *** p<0.001, and **** p<0.0001.
# [4] = system: serum proteins, mostly albumin; conditions: cited from earlier work
# [5] = system: serum proteins, mostly albumin; test: Serum protein binding kinetics (size exclusion column); format: in vitro ADME; conditions: until 24 h incubation
# Protocol: FIG. 15 Reaction kinetics of SH1, ICG, and IR-780 to serum proteins, mostly albumin. 50 nmol of each dye was mixed with 1 ml of FBS/PBS (pH 7.4) 50/50 v/v %, incubated at 37° C., and analyzed using a BioResolve size exclusion column (200 Å, 2.5 μm, 7.8×300 mm). The binding percentage was calculated by dividing by absorbance of bound dye at 24 h assuming the dyes can bind in maximum capacity in the protein at 24 h.
# [6] = Photostability under xenon lamp irradiation; format: physicochemical; conditions: ethanol, xenon lamp 150 W, end of 2 h
# Protocol: Optical Study, Photostability, Physicochemical Properties, and DFT Calculation: 1 mM stock solution in DMSO of the synthesized fluorophores was prepared before starting any spectral measurement. Optical properties for the synthesized fluorophores were measured in four different solvents (EtOH, DMSO, HEPES, and PBS). Absorbance spectra were measured in a Varian Cary 50 absorbance spectrophotometer (190-1100 nm). Fluorescence emission and photostability were measured and emission spectra were recorded on a Shimadzu RF-5301PC spectrofluorometer. Physicochemical properties (Log D, molecular mass, TPSA, H bond D/A, polarizability, molecular volume, and rotatable bonds) were predicted by ChemAxon (JChem plugin). Theoretical calculations of frontier molecular orbitals (FMOs) for the optimized structures of selected fluorophores were calculated based on DFT calculations at the B3LYP/6-311G(d,p) level.
# In consideration of theranostic (therapeutics and diagnostic) applications, NIR cyanine fluorophores are synthesized for fluorescence imaging, photodynamic therapy (PDT), photothermal therapy (PTT), optoacoustic imaging, and cancer immunotherapy. One of the approaches before using these fluorophores in those applications is to study their biodistribution and clearance pattern in vivo. […] The power density of 150 W is much higher than the required power for fluorescence imaging, considering that the time it takes for a fluorophore to clear from the background and accumulate in sufficient quantities in the targeted tissues is unknown. […] By considering this, an aliquot of the stock solution (1 mM in DMSO) was diluted in ethanol, and the fluorescence intensity was measured at the excitation wavelength same as their absorption maxima (nm). Photodegradation rates were measured every 20 min intervals for the selected fluorophores based on the % reduced fluorescence intensity starting from 100%. […] The data were collected in every 20 min intervals under continuous irradiation with a xenon lamp at 150 W for 2 h and presented based on the % reduced fluorescence intensity starting from 100%. […]
# [7] = cited from earlier work
Compound,fluorescence signal location in resected tumor [1],positively stained cells across distinct immune cell populations ([2]; bone marrow),positively stained cells across distinct immune cell populations ([2]; tumor),nonspecific background signal in biodistribution ([3]; 4 h post-injection),circulation in the blood stream ([3]; 48 h post-injection),tumor signal intensity after skin removal ([3]; 48 h post-injection),tumor targeting / tumor signal [3],time to bind half of the maximum [4],reaction with serum proteins [5],photodegradation (% reduced fluorescence intensity) [6],"clearance ([3]; mouse, in vivo)",reference quantum yield ΦICG [7]
CCCN1/C(=C/C=C2\CCCC(/C=C/C3=[N+](CCC)c4ccccc4C3(C)C)=C2Cl)C(C)(C)c2ccccc21.[I-] [IR-780],only present in the peritumoral region,< 22%,< 7%,High nonspecific background signal,strong signals in the blood plasma; also recorded: circulating in the blood stream,significantly decreased after skin removal,accumulating in tumors at early time points around 4 h post-injection,~2 min,–,–,–,–
"CC1(C)C(/C=C/C=C/C=C/C=C2\N(CCCCS(=O)(=O)O)c3ccc4ccccc4c3C2(C)C)=[N+](CCCCS(=O)(=O)[O-])c2ccc3ccccc3c21 [ICG, indocyanine green, reference compound]",barely present in the tumor,< 8%,< 14%,–,–,–,did not show good tumor targeting,–,did not show any reactions with proteins until 24 h incubation,41%,fast hepatobiliary clearance,0.043
